Data set [1] addresses T1, EssC-C (Geobacillus thermodenitrificans, UniProt A4IKE7). Further details: gene eccC. The following applies: D2 nucleotide site; ATP modelled in the second molecule (mant density ambiguous, crystal grown with mant-ATP); also present in SeMet structure without added nucleotide; displaces mant-ATP.
The target of data set [2] is T1, EssC-C. Description: fluorescence titration (excitation […] nm, emission […] nm). The format is binding. More on the design: gene eccC; C-terminal fragment, residues 966-1479 (ATPase modules D2 and D3); N-terminal His6 tag removed with TEV; E. coli host.
Data set [3] deals with the molecule itself. Description: native gel or EMSA; blue native PAGE, linear 4-12% gradient native Bis-Tris gels; 8 ug purified EssC-C or 5 ug full-length EssC (DDM-solubilized) loaded; band identity by peptide mass fingerprinting. Background: A gel shift assay detects complexes by their altered migration in electrophoresis.

With `Nc1ncnc2c1ncn2[C@@H]1O[C@H](COP(=O)(O)OP(=O)(O)OP(=O)(O)O)[C@@H](O)[C@H]1O` [ATP], on EssC-C [1], the “X-ray crystal structure (2.9 Å); displacement of mant-ATP fluorescence” value is given as “ATP was present in the nucleotide-binding site of the D2 module”.
For orientation: Kd means the concentration at which binding is half-saturated. Low readings indicate higher affinity, high ones lower affinity. `CNc1ccccc1C(=O)O[C@H]1[C@@H](O)[C@H](n2cnc3c(N)ncnc32)O[C@@H]1CO[P@@](=O)(O)O[P@](=O)(O)OP(=O)(O)O` (mixture of isomers) [mant-ATP, 2′/3′-(N-methyl-anthraniloyl)-adenosine-5′-triphosphate] displayed a Kd on EssC-C [2] of 940 ± 110 nM.

B1: full-length membrane-bound EssC from Geobacillus thermodenitrificans NG80-2 (natural protein, UniProt A4IKE7 1-1479, looked up)
chain: MSQLWVLYETYCQLFSLTNEEKVIVIGNQLEHHVTVSSFSFRNGYIQIEKKSDGSTLAVLQGGRQIGELKPRCSITIDVDGQQMTIAWSGEEQRKYVYYVGQQSEVLVSNDPQADIETTNARFSLRKHRGQWVVIPDDDAPLFLNGVQLSDAVSLRNGDVLLCPYMQFVFIEEDLLAVTSSEEVVSSLTETMPPLSEMKKKYPMYRRTPRMIYELPSDKVSISFPSQEGDGDPRGLWLMVLPPVMMLLVIGAVALIQPRGVFIMISIAMFATTIVTSTAQYMREKKARQMRKEKRRRIYTNYLEQKREELQALSEKQRNVLYYHFPSFEQMKSFVMQVNSRIWERTAESADFLHVRIGTADVPATYEVSVSMGDLANREIDDLLEQAQHIAKVYQTVKHVPLPIDVSHGAIGMVGKRSIVNGEIEQLVGQIAFFHSYHDVRFVAIFSEDDYKHWEWMKWLPHFQLPNSFAKGLIYNEQTRDQLLSSIYEMLRERALDEEKDKKRFSPHFVFIVADRSLIAEHVILEYLEEKNEDIGISVIFASETKESLTENVHTLVQYINEREGEIVIQHRKAAHIPFQLDEHSTEGNESFARMLRSLNHQKGMSNSIPEKVTFLEMMQTRRANELQIVQNWLSCQTSRSLAVPIGLKGRNDVVELNLHEKAHGPHGLVAGTTGSGKSELLQTYILSLAVHFHPHEVAFLIIDYKGGGMAQPFKNMPHLLGTITNIHGSKNFSARALASINSELKKRQRLFDRYEVNHINDYMELYKQGKAEQPLPHLFLIADEFAELKSEEPDFIRELVSAARIGRSLGVHLILATQKPRGVIDEQIWSNARFRISLKMQDVNDSKEILRNGDAAAITVPGRAYLQVGNNEVYELFQSAWSGAPYVEEGVEAEDEIHIVTDLGLVPVSNVATDRKRSRQKPKTEIEMVVEQIIETQKQLNIEKLPSPWLPPLPPRLARPASVTAEANAFPIGLKDEPELQSQSDYFYQWLEDGNIGIFGSAGYGKSTTMMTLLLSFAGAYNPAQLHYYIFDFGNSALLPLRQLPHTADYFRLDDEKKIEKFIKFMKEEMEQRKQRFMEKEVSTIKLYNALSEEKLPIIIVALDNFDVVKEEMPDFETQLIQYARDGQSLGIFFIMTATRVSGIRPPLMNNLKTKIVHYFIDSSEKFSLIGRTPYDVDPIPGRALIKKDNAALTQIYLPADGEDDIEVLENVKREMERLKEVYQHIPKPKPIPMLPPRLSMSVFTNTYVQHRASGFIPVGLDEQTVRPVAINMRTDPHCLIVGQSRKGKTNVVKVILESLLVQEPESIGLLDGIDRGLAGYANRDDITYIEAKERLAQWLNEADAVLQQREREYIQAVNENRATTLAWPPVVFVVDSLLRLQQETDSIMQGRIANMMKQYSHLGFHVFVAGNANEFVKGFDALTAELKQIRQAILVTKKSEQSLFALPFTRNEQEIEPGFGYFVVGGKDQKIQIPKVE
notes: also called full-length EssC; full-length recombinant protein; source: E. coli LEMO21(DE3), membranes solubilized with DDM, purified (His-Trap, SEC on Superdex 200 with 0.03% DDM)
The stoichiometry N is the number of molecules, sites or subunits per partner or assembly. For B1, the “stoichiometry N” value in data set [3] was approximately 6.

The record behind these values is publication PMC4925161, “EssC: domain structures inform on the elusive translocation channel in the Type VII secretion system” (Biochemical Journal, 2016).
